Results taken from patent publication US20220081421A1, “ANTIBACTERIAL COMPOUNDS” (Forge Therapeutics, Inc., priority 2018, published 2022).
Converted amounts (≈) assume the structure as drawn. Like-named read-outs stand apart in the source and are kept apart here.

Columns and labels:
E. coli = assay: MIC by broth microdilution (CLSI), E. coli; assay type: cell-based; conditions: for MIC: Escherichia coli, read-out: E. coli MIC
Protocol: (§1) Minimal inhibitory concentrations (MIC) were determined by the broth microdilution method in accordance with the Clinical and Laboratory Standards Institute (CLSI) guidelines. In brief, organism suspensions were adjusted to a 0.5 McFarland standard to yield a final inoculum between 3×10^5 and 7×10^5 colony-forming units (CFU)/mL. Drug dilutions and inocula were made in sterile, cation adjusted Mueller-Hinton Broth (Beckton Dickinson). An inoculum volume of 100 μL was added to wells containing 100 μL of broth with 2-fold serial dilutions of drug. All inoculated microdilution trays were incubated in ambient air at 35° C. for 18-24 h. Following incubation, the lowest concentration of the drug that prevented visible growth (OD600 nm<0.05) was recorded as the MIC. Performance of the assay was monitored by the use of laboratory quality-control strains and levofloxacin, a compound with a defined MIC spectrum, in accordance with CLSI guidelines.

K. pneumoniae = assay: MIC by broth microdilution (CLSI), K. pneumoniae; assay type: cell-based; conditions: for MIC: Klebsiella pneumoniae, read-out: K. pneumoniae MIC
Protocol: as §1

[1] = broth microdilution, cation adjusted Mueller-Hinton Broth, 35° C., 18-24 h

Work on C/C(=N\O)C(Cc1ccc(C#Cc2ccc(CN3CCOCC3)cc2)cc1)c1ncnc(O)c1O (stereo not shown) [Compound 111, (E)-3-(5,6-dihydroxypyrimidin-4-yl)-4-(4-((4-(morpholinomethyl)phenyl)ethynyl)phenyl)butan-2-one oxime] yielded an MIC (E. coli; [1]) of 8 to 32 µg/mL (≈ 16.9 to 67.7 µM) and an MIC (K. pneumoniae; [1]) of over 32 µg/mL.

O=c1[nH]cnc(C(CCl)Cc2ccc(C#Cc3ccc(CN4CCOCC4)cc3)cc2)c1O (stereo not shown) [Compound 113, 6-(1-chloro-3-(4-((4-(morpholinomethyl)phenyl)ethynyl)phenyl)propan-2-yl)-5-hydroxypyrimidin-4(3H)-one] showed an MIC (E. coli; [1]) of 8 to 32 µg/mL (≈ 17.2 to 69 µM) and an MIC (K. pneumoniae; [1]) of 8 to 32 µg/mL (≈ 17.2 to 69 µM).

Molecule O=c1ccoc(CCc2ccc(C#Cc3ccc(CN4CCOCC4)cc3)cc2)c1O [Compound 117, 3-hydroxy-2-(4-((4-(morpholinomethyl)phenyl)ethynyl)phenethyl)-4H-pyran-4-one] has an MIC (E. coli; [1]) of 8 to 32 µg/mL (≈ 19.3 to 77 µM) and an MIC (K. pneumoniae; [1]) of over 32 µg/mL.

Molecule O=C(NCCc1nc[nH]c(=O)c1O)n1cc(C#Cc2ccc(CN3CCOCC3)cc2)cc1CO [Compound 79, N-(2-(5-hydroxy-6-oxo-1,6-dihydropyrimidin-4-yl)ethyl)-2-(hydroxymethyl)-4-((4-(morpholinomethyl)phenyl)ethynyl)-1H-pyrrole-1-carboxamide] has an MIC (E. coli; [1]) of 8 to 32 µg/mL (≈ 16.8 to 67 µM) and an MIC (K. pneumoniae; [1]) of over 32 µg/mL.

With CC(C)C#CC#Cc1ccc(CC(CNCCF)c2nc[nH]c(=O)c2O)cc1 (stereo not shown) [Compound 66, 6-(1-((2-fluoroethyl)amino)-3-(4-(5-methylhexa-1,3-diyn-1-yl)phenyl)propan-2-yl)-5-hydroxypyrimidin-4(3H)-one] the MIC (E. coli; [1]) was 8 to 32 µg/mL (≈ 21 to 83.9 µM) and the MIC (K. pneumoniae; [1]) was 8 to 32 µg/mL (≈ 21 to 83.9 µM).

O=C(NCC(F)F)C(Cc1ccc(C#Cc2ccc(C(F)(F)F)nc2)cc1)c1nc[nH]c(=O)c1O (stereo not shown) [Compound 26, N-(2,2-difluoroethyl)-2-(5-hydroxy-6-oxo-1,6-dihydropyrimidin-4-yl)-3-(4-((6-(trifluoromethyl)pyridin-3-yl)ethynyl)phenyl) propanamide] was tested, and the MIC (E. coli; [1]) was over 32 µg/mL and the MIC (K. pneumoniae; [1]) was over 32 µg/mL.

For O=C(NCC(F)F)C(Cc1ccc(C#Cc2cnc(C(F)(F)F)nc2)cc1)c1nc[nH]c(=O)c1O (stereo not shown) [Compound 27, N-(2,2-difluoroethyl)-2-(5-hydroxy-6-oxo-1,6-dihydropyrimidin-4-yl)-3-(4-((2-(trifluoromethyl)pyrimidin-5-yl)ethynyl)phenyl) propanamide], the MIC (E. coli; [1]) was over 32 µg/mL and the MIC (K. pneumoniae; [1]) was over 32 µg/mL.

For O=c1[nH]cnc(C(CNCCF)Cc2ccc(C#CC#CC3CC3)cc2)c1O (stereo not shown) [Compound 68, 6-(1-(4-(cyclopropylbuta-1,3-diyn-1-yl)phenyl)-3-((2-fluoroethyl)amino)propan-2-yl)-5-hydroxypyrimidin-4(3H)-one], the MIC (E. coli; [1]) was over 32 µg/mL and the MIC (K. pneumoniae; [1]) was over 32 µg/mL.

In the case of CC(=O)NCC(Cc1ccc(C#Cc2ccc(CN3CCOCC3)cc2)cc1)c1nncc(O)c1O (stereo not shown) [Compound 11, N-(2-(4,5-dihydroxypyridazin-3-yl)-3-(4-((4-(morpholinomethyl)phenyl)ethynyl)phenyl)propyl) acetamide], the MIC (E. coli; [1]) is reported as 8 to 32 µg/mL (≈ 16.4 to 65.8 µM) and the MIC (K. pneumoniae; [1]) is reported as 8 to 32 µg/mL (≈ 16.4 to 65.8 µM).

In the case of O=C1N(CCc2nc[nH]c(=O)c2O)Cc2cc(Br)cn21 [Compound 69, 6-bromo-2-(2-(5-hydroxy-6-oxo-1,6-dihydropyrimidin-4-yl)ethyl)-1,2-dihydro-3H-pyrrolo[1,2-c]imidazol-3-one], the MIC (E. coli; [1]) is reported as over 32 µg/mL and the MIC (K. pneumoniae; [1]) is reported as over 32 µg/mL.

With OCC(Cc1nncc(O)c1O)c1ccc(C#Cc2ccc(CN[C@H]3CCOC3)cc2)cc1 (single isomer, unassigned) [Compound 102] the “E. coli MIC” value (E. coli; [1]) was “C (C: >8.0 μg/mL to ≤32 μg/mL)” and the “K. pneumoniae MIC” value (K. pneumoniae; [1]) was “C (C: >8.0 μg/mL to ≤32 μg/mL)”.

O=c1[nH]cnc(CCN2CCC(C#Cc3ccc(CN4CCOCC4)cc3)CC2)c1O [Compound 78, 5-hydroxy-6-(2-(4-((4-(morpholinomethyl)phenyl)ethynyl)piperidin-1-yl)ethyl)pyrimidin-4(3H)-one] gave an MIC (E. coli; [1]) of 8 to 32 µg/mL (≈ 18.9 to 75.7 µM) and an MIC (K. pneumoniae; [1]) of over 32 µg/mL.

Cn1cnc(C(CNC(=O)CF)Cc2ccc(C#Cc3ccc(CN4CCOCC4)cc3)cc2)c(O)c1=O (stereo not shown) [Compound 132, 2-fluoro-N-(2-(5-hydroxy-1-methyl-6-oxo-1,6-dihydropyrimidin-4-yl)-3-(4-((4-(morpholinomethyl)phenyl)ethynyl)phenyl)propyl)acetamide] gave an MIC (E. coli) of over 32 µg/mL and an MIC (K. pneumoniae) of over 32 µg/mL.

Molecule O=c1[nH]cnc(Cn2ccc3cc(C#Cc4ccc(CN5CCOCC5)cc4)cnc32)c1O [Compound 80, 5-hydroxy-6-((5-((4-(morpholinomethyl)phenyl)ethynyl)-1H-pyrrolo[2,3-b]pyridin-1-yl)methyl)pyrimidin-4(3H)-one] has an MIC (E. coli; [1]) of 8 to 32 µg/mL (≈ 18.1 to 72.5 µM) and an MIC (K. pneumoniae; [1]) of over 32 µg/mL.

With CC(=O)NCC(Cc1ccc(C#Cc2ccc(CN3CCOCC3)cc2)cc1)c1c(O)cn[nH]c1=O (stereo not shown) [Compound 131, N-(2-(5-hydroxy-3-oxo-2,3-dihydropyridazin-4-yl)-3-(4-((4-(morpholinomethyl)phenyl)ethynyl)phenyl)propyl)acetamide] the MIC (E. coli; [1]) was over 32 µg/mL and the MIC (K. pneumoniae; [1]) was over 32 µg/mL.

Nc1ccc(C#Cc2ccc(CC(C(=O)NCC(F)F)c3nc[nH]c(=O)c3O)cc2)cn1 (stereo not shown) [Compound 28, 3-(4-((6-aminopyridin-3-yl)ethynyl)phenyl)-N-(2,2-difluoroethyl)-2-(5-hydroxy-6-oxo-1,6-dihydropyrimidin-4-yl)propanamide] gave an MIC (E. coli; [1]) of 8 to 32 µg/mL (≈ 18.2 to 72.8 µM) and an MIC (K. pneumoniae; [1]) of over 32 µg/mL.

C=CCNCC(Cc1ccc(C#CC#Cc2ccc(C(=O)NCCO)cc2)cc1)c1nc[nH]c(=O)c1O (stereo not shown) [Compound 34, 4-((4-(3-(allylamino)-2-(5-hydroxy-6-oxo-1,6-dihydropyrimidin-4-yl)propyl)phenyl)buta-1,3-diyn-1-yl)-N-(2-hydroxyethyl)benzamide] was tested, and the MIC (E. coli; [1]) was 1 to 8 µg/mL (≈ 2.01 to 16.1 µM) and the MIC (K. pneumoniae; [1]) was 8 to 32 µg/mL (≈ 16.1 to 64.4 µM).

OCC(Cc1nccc(O)c1O)c1ccc(C#Cc2ccc(CN3CCOCC3)cc2)cc1 (stereo not shown) [Compound 134, 2-(3-hydroxy-2-(4-((4-(morpholinomethyl)phenyl)ethynyl)phenyl)propyl)pyridine-3,4-diol] showed an MIC (E. coli; [1]) of over 32 µg/mL and an MIC (K. pneumoniae; [1]) of over 32 µg/mL.

For CC(C)C#CC#Cc1ccc(CC(C(=O)NCC(F)F)c2nc[nH]c(=O)c2O)cc1F (stereo not shown) [Compound 63, N-(2,2-difluoroethyl)-3-(3-fluoro-4-(5-methylhexa-1,3-diyn-1-yl)phenyl)-2-(5-hydroxy-6-oxo-1,6-dihydropyrimidin-4-yl)propanamide], the MIC (E. coli; [1]) was 1 to 8 µg/mL (≈ 2.32 to 18.5 µM) and the MIC (K. pneumoniae; [1]) was 8 to 32 µg/mL (≈ 18.5 to 74.2 µM).

Molecule O=c1[nH]cnc(C2(Cn3ccc(C#Cc4ccc(CN5CCOCC5)cc4)cc3=O)CC2)c1O [Compound 43, 5-hydroxy-6-(1-((4-((4-(morpholinomethyl)phenyl)ethynyl)-2-oxopyridin-1(2H)-yl)methyl)cyclopropyl) pyrimidin-4(3H)-one] has an MIC (E. coli; [1]) of over 32 µg/mL and an MIC (K. pneumoniae; [1]) of over 32 µg/mL.

Molecule O=c1[nH]cnc(C(CNCCF)Cc2ccc(C#Cc3ccc(CN4CCOCC4)nc3)cc2)c1O (stereo not shown) [Compound 31, 6-(1-((2-fluoroethyl)amino)-3-(4-((6-(morpholinomethyl)pyridin-3-yl)ethynyl)phenyl)propan-2-yl)-5-hydroxypyrimidin-4(3H)-one] has an MIC (E. coli; [1]) of over 32 µg/mL and an MIC (K. pneumoniae; [1]) of over 32 µg/mL.

O=c1[nH]cnc(CCn2ccc(C#Cc3ccc(CN4CCOCC4)cc3)cc2=O)c1O [Compound 23, 5-hydroxy-6-(2-(4-((4-(morpholinomethyl)phenyl)ethynyl)-2-oxopyridin-1(2H)-yl)ethyl)pyrimidin-4(3H)-one] showed an MIC (E. coli; [1]) of under 1 µg/mL and an MIC (K. pneumoniae; [1]) of 8 to 32 µg/mL (≈ 18.5 to 74 µM).

Molecule C=CCNCC(Cc1ccc(C#CC#Cc2cnn(C)c2)cc1)c1nc[nH]c(=O)c1O (stereo not shown) [Compound 62, 6-(1-(allylamino)-3-(4-((1-methyl-1H-pyrazol-4-yl)buta-1,3-diyn-1-yl)phenyl)propan-2-yl)-5-hydroxypyrimidin-4(3H)-one] has an MIC (E. coli; [1]) of 1 to 8 µg/mL (≈ 2.42 to 19.3 µM) and an MIC (K. pneumoniae; [1]) of 8 to 32 µg/mL (≈ 19.3 to 77.4 µM).
